# “Also recorded” adds a separate entry of the source. Counter-ions that a name gives are not always drawn.
# What was measured:
# [1] = Solid-state accelerated stability test (40 ± 2 °C/RH 75 ± 5 %); details: for Change (%) Degradant: 1 month vs initial; for Initial (%) Total Related substances / Initial (%) Degradant: Table 7, initial; for Initial (%) Degradant: degradant of Formula 4
# [2] = Photostability test, visible light (1.2 Mlux·hr) exposure; details: for Change (%) Degradant: Table 11, after exposure vs initial; for After (%) Degradant / After (%) Total Related substances: Table 11 under heading Visible Light (1.2 Mlux-hr) Exposure Test
# Description: A photostability comparative test was conducted on each of the above-mentioned prepared tegoprazan acid addition salts. The test was conducted by exposing the sample to light with an energy of 200 W hr/m^2 of ultraviolet light and 1.2 Mlux hr of visible light in accordance with The International Council for Harmonisation of Technical Requirements for Pharmaceuticals for Human Use (ICH) guideline, with the samples packaged in a single PE bag and spread thinly enough to ensure exposure to the light source, taking humidity stability into consideration. The purity of the acid addition salts and the change in the amount of degradants at the initial time point and after exposure to ultraviolet light or visible light were measured by HPLC.
# [3] = Liquid stability comparative test (20 mg/mL in purified water, 40 °C, 24 hours, HPLC); format: physicochemical; details: for solid precipitation / solution state: stored at 40 °C for 24 hours
# Description: The analysis conditions are as follows.
# Each sample was dissolved in purified water to prepare a solution with a concentration of 20 mg/mL, stored at an external temperature of 40 °C, and analyzed by HPLC at the initial time point and after 24 hours to measure purity, and the change in the generated degradant (Formula 4) was measured. The analysis of total related substances and degradants was performed by taking a liquid from a solution prepared at a concentration of 20 mg/mL, diluting it to a concentration of 4 mg/mL with the diluent of the related substance test method (HPLC), and measuring it as a test solution, and analyzing it according to the related substance test method (HPLC).
# [4] = Solid-state stress stability test (temperature 60 °C); details: for Change (%) Degradant: 1 month vs initial; for Initial (%) Degradant / Initial (%) Total Related substances: Table 8, initial
# Description: (§1) Operation and Calculation: The blank solution, standard solution, and test solution were sequentially tested under the instrument operating conditions according to the liquid chromatography method in the General Test Methods of the 12th Edition of the Korean Pharmacopoeia, and the amount of related substances was calculated using the following equation. Amount of each related; substance (%) = (AT)/(AS) × (CS)/(CT) × (Molecular weight; of the sample)/(Molecular weight; of the standard; product) × P × (1)/(RR; F) [formula] AT = Area of each related substance peak obtained from the test solution AS = Area of the tegoprazan peak obtained from the standard solution CS = Concentration of standard solution (mg/mL) CT = Concentration of test solution (mg/mL) P = Purity/Assay/Potency (%) of standard product RRF = Relative response factor (1.0)
# (§2) A solid-state stability comparative test was conducted on each of the above-mentioned prepared tegoprazan acid addition salts. The stability comparative test was conducted for 1 month under the conditions shown in Table 6 below in accordance with The International Council for Harmonisation of Technical Requirements for Pharmaceuticals for Human Use (ICH) guideline, and the purity of the acid addition salt, total related substances, and the content of degradants were measured by HPLC at the initial time point and after 1 month. Total related substances and degradants were measured according to the related substance test method (HPLC).
# 2) Stress Stability Test (temperature 60 °C)
# [5] = Photostability test, ultraviolet light (200 W·hr/m2) exposure; details: for After Ultraviolet Light Exposure (200 W hr/m2)(%) Degradant / After Ultraviolet Light Exposure (200 W hr/m2)(%) Total Related substances: Table 10, UV 200 W·hr/m2, PE bag; for Change (%) Degradant: Table 10, after UV exposure vs initial; for Initial (%) Degradant / Initial (%) Total Related substances: Table 10, initial
# [6] = Solid-state stress stability test (humidity 90 % RH); details: for Remarks: state of the solid; for Initial (%) Degradant / Initial (%) Total Related substances: Table 9, initial
# Description: as §1, §2
# 3) Stress Stability (humidity 90 % RH)
# [7] = Raw material stability test versus tegoprazan freebase (60 °C or 90 % RH); format: physicochemical
# [8] = Stability test by formulation (tablets and orally disintegrating tablets, 60 °C or 90 % RH); format: physicochemical; details: tablets and orally disintegrating tablets prepared with the named salt, versus reference drug
# Description: The amount of total related substances under stress storage conditions (temperature/humidity) was measured using liquid chromatography (HPLC) using an Infinity 1260 (Agilent) equipment. The analysis conditions are as follows.
# To minimize the influence of additives, each test formulation was selected with the same additives as the reference drug (K-CAB tablets 50 mg, K-CAB orally disintegrating tablets 50 mg) disclosed in the Ministry of Food and Drug Safety Pharmaceutical Integrated Information System, and to minimize differences due to the granule manufacturing process, the formulation was prepared using the simple mixing (direct compression) method. Each formulation was as shown in Tables 16 and 17 below, and the stability conditions were conducted for each formulation under the storage conditions of 60 °C, which is a stress temperature condition, and 90 % RH, which is a stress humidity condition, respectively.
# Stability tests were conducted under stress storage conditions (temperature/humidity) for each formulation. The results of measuring the amount of total related substances after storage under stress conditions for 1 week or 3 weeks are shown in FIG. 18 and FIG. 19.
# [9] = 40 ± 2 °C / RH 75 ± 5 %, 1 month
# [10] = 20 mg/mL in purified water, 40 °C, 24 hours
# [11] = 20 mg/mL in purified water, initial time point
# [12] = degradant of Formula 4, 20 mg/mL in purified water, 40 °C, 24 hours
# [13] = liquid stability, 40 °C, 24 hours
smiles,measurement,setting,value
Cc1nc2c(O[C@H]3CCOc4cc(F)cc(F)c43)cc(C(=O)N(C)C)cc2[nH]1 [Pidolate Salt],After 1 Month (%) Degradant,[1]; [9],0.003%
same,After 1 Month (%) Total Related substances,[1]; [9],0.146%
same,Change (%) Degradant,[1]; 40 ± 2 °C / RH 75 ± 5 %,0.002%
same,Initial (%) Total Related substances,[1],0.145%
same,Initial (%) Degradant,[1],0.001%
same,Change in Quality (%) Accelerated (4 weeks) Degradant,[1]; Table 12 summary,0.002%
same,Change in Quality (%) Accelerated (4 weeks) Purity,[1]; Table 12 summary,-0.001%
same,purity change after 1 month,[1]; accelerated stability,≤ 0.1%
same,Change (%) Degradant,[2],0.067%
same,Initial (%) Degradant,"[2]; Table 11, initial",0.001%
same,Initial (%) Total Related substances,"[2]; Table 11, initial",0.145%
same,After (%) Degradant,[2],0.068%
same,After (%) Total Related substances,[2],0.463%
same,Change in Quality (%) Light (Visible) Degradant,[2]; Table 12 summary,0.067%
same,After 24 hours Purity (%),[3]; [10],Solid precipitated
same,Initial Purity (%),[3]; [11],99.98%
same,After 24 hours Degradant (%),[3]; [12],Solid precipitated
same,solid precipitation / solution state,[3]; listed as pidolate,a solid precipitated
same,solid precipitation / solution state,[3]; listed as pidolate salt,solid precipitation; also recorded: solids were precipitated
same,After 1 Month (%) Degradant,"[4]; 60 °C, 1 month",0.088%
same,After 1 Month (%) Total Related substances,"[4]; 60 °C, 1 month",0.353%
same,Change (%) Degradant,[4]; 60 °C,0.087%
same,Initial (%) Degradant,[4],0.001%
same,Initial (%) Total Related substances,[4],0.145%
same,Change in Quality (%) 60 °C (4 weeks) Degradant,[4]; Table 12 summary,0.087%
same,Change in Quality (%) 60 °C (4 weeks) Purity,[4]; Table 12 summary,-0.208%
same,After Ultraviolet Light Exposure (200 W hr/m2)(%) Degradant,[5],0.020%
same,After Ultraviolet Light Exposure (200 W hr/m2)(%) Total Related substances,[5],0.266%
same,Change (%) Degradant,[5],0.019%
same,Initial (%) Degradant,[5],0.001%
same,Initial (%) Total Related substances,[5],0.145%
same,Change in Quality (%) Light (Ultraviolet) Degradant,[5]; Table 12 summary,0.019%
same,Change in Quality (%) Light (Ultraviolet) Purity,[5]; Table 12 summary,0.121%
same,Remarks,"[6]; 90 % RH, 1 month",Melted
same,absorb moisture and deliquesce / melted,"[6]; 90 % RH, listed as pidolate",deliquesced
same,absorb moisture and deliquesce / melted,"[6]; 90 % RH, listed as pidolate salt",absorb moisture and deliquesce; also recorded: melted
same,Initial (%) Degradant,[6],0.001%
same,Initial (%) Total Related substances,[6],0.145%
same,Change in Quality (%) 90 % RH (4 weeks) Degradant,[6]; Table 12 summary,Melted
same,Change in Quality (%) 90 % RH (4 weeks) Purity,[6]; Table 12 summary,Melted
Cc1nc2c(O[C@H]3CCOc4cc(F)cc(F)c43)cc(C(=O)N(C)C)cc2[nH]1 [Sulfate Salt],After 1 Month (%) Degradant,[1]; [9],0.712%
same,After 1 Month (%) Total Related substances,[1]; [9],1.197%
same,Change (%) Degradant,[1]; 40 ± 2 °C / RH 75 ± 5 %,0.373%
same,Remarks,"[1]; 40 ± 2 °C / RH 75 ± 5 %, 1 month, appearance",Discolorat ion
same,Initial (%) Total Related substances,[1],0.609%
same,Initial (%) Degradant,[1],0.339%
same,increase in total related substances after 1 month,[1]; accelerated stability,≥ 0.3%
same,change in appearance of the solid,"[1]; accelerated stability, 1 month",discoloration
same,Change (%) Degradant,[2],1.934%
same,Initial (%) Degradant,"[2]; Table 11, initial",0.339%
same,Initial (%) Purity,"[2]; Table 11, initial",99.3%
same,Initial (%) Total Related substances,"[2]; Table 11, initial",0.609%
same,After (%) Degradant,[2],2.273%
same,After (%) Total Related substances,[2],2.754%
same,After 24 hours Purity (%),[3]; [10],93.95%
same,Initial Purity (%),[3]; [11],99.89%
same,After 24 hours Degradant (%),[3]; [12],5.414%
same,Initial Degradant (%),"[3]; degradant of Formula 4, 20 mg/mL in purified water, initial time point",0.080%
same,Amount of Change Degradant (%),[3]; initial vs after 24 hours at 40 °C,5.33%
same,degradants formed after 24 hours of storage,[3]; [13],≥ 5%
same,purity decreased,[3]; [13],about 6%
same,After 1 Month (%) Degradant,"[4]; 60 °C, 1 month",2.345%
same,After 1 Month (%) Total Related substances,"[4]; 60 °C, 1 month",3.441%
same,"change in appearance, change in the color of the solid","[4]; 60 °C, 1 month",change in appearance
same,Change (%) Degradant,[4]; 60 °C,2.006%
same,Remarks,"[4]; 60 °C, 1 month, appearance",Discolorat ion
same,Initial (%) Degradant,[4],0.339%
same,Initial (%) Total Related substances,[4],0.609%
same,After Ultraviolet Light Exposure (200 W hr/m2)(%) Degradant,[5],1.415%
same,After Ultraviolet Light Exposure (200 W hr/m2)(%) Total Related substances,[5],1.748%
same,Change (%) Degradant,[5],1.076%
same,Initial (%) Degradant,[5],0.339%
same,Initial (%) Total Related substances,[5],0.609%
same,After 1 Month (%) Degradant,"[6]; 90 % RH, 1 month",14.500%
same,After 1 Month (%) Total Related substances,"[6]; 90 % RH, 1 month",16.637%
same,Change (%) Degradant,"[6]; 90 % RH, 1 month vs initial",14.161%
same,Remarks,"[6]; 90 % RH, 1 month",Polymorp hic Transition
same,polymorphic transition (PXRD),"[6]; 90 % RH, after 1 month",polymorphic transition occurred
same,Initial (%) Degradant,[6],0.339%
same,Initial (%) Total Related substances,[6],0.609%
same,"change in appearance, 60 °C","[7]; 60 °C, 3 weeks",Pungent odor
same,"change in appearance, 90 % RH","[7]; 90 % RH, 3 weeks",Pungent odor
same,"change in appearance, Initial",[7]; initial,Pungent odor
same,amount of total related substances generated (FIG. 13),"[7]; stress temperature/humidity storage, compared to tegoprazan freebase",significantly increased
same,amount of total related substances generated (FIGS. 18 and 19),"[8]; 60 °C or 90 % RH, 1 or 3 weeks",significantly increased
same,degree of weight gain (FIG. 17),"[8]; 90 % RH, 3 weeks",greater

# From patent publication EP4678639A1, “SALT OF BENZIMIDAZOLE DERIVATIVE” (JW Pharmaceutical Corporation, priority 2023, dated 2024)
